# Experimental data reported in ChEMBL document CHEMBL4184220, “Identification of novel plasminogen activator inhibitor-1 inhibitors with improved oral bioavailability: Structure optimization of N-acylanthranilic acid derivatives” (Bioorg Med Chem Lett, 2018).
# Tests used:
# [1] = Half life in Wistar rat at 5 mg/kg, po administered as triple or quadruple dosing measured after 1 to 24 hrs by reverse-phase HPLC method; format: ADME, organism-based; conditions: in vivo
# [2] = Tmax in Wistar rat at 5 mg/kg, po administered as triple or quadruple dosing measured after 1 to 24 hrs by reverse-phase HPLC method; format: ADME, organism-based; conditions: in vivo
# [3] = Cmax in Wistar rat at 5 mg/kg, po administered as triple or quadruple dosing measured after 1 to 24 hrs by reverse-phase HPLC method; format: ADME, organism-based; parameters: dose 5 mg/kg, route oral; conditions: in vivo
# [4] = Tmax in Wistar rat at 50 mg/kg, po administered as single dose measured after 1 to 24 hrs by reverse-phase HPLC method; format: ADME, organism-based; conditions: in vivo
# [5] = Cmax in Wistar rat at 50 mg/kg, po administered as single dose measured after 1 to 24 hrs by reverse-phase HPLC method; format: ADME, organism-based; parameters: dose 50 mg/kg, route oral; conditions: in vivo
# [6] = Half life in Wistar rat at 50 mg/kg, po administered as single dose measured after 1 to 24 hrs by reverse-phase HPLC method; conditions: in vivo
# [7] = target: T1, Plasminogen activator inhibitor 1 (Homo sapiens, UniProt P05121); assay: Inhibition of human PAI-1 assessed as remaining enzyme activity by measuring p-nitroaniline release pre-incubated for 15 mins before 2 nM […] addition for 15 mins using 5 nM enzyme and chromogenic substrate S-2288 by spectrophotometry
# [8] = Cmax in Wistar rat at 5 mg/kg, po administered as single dose measured after 1 to 24 hrs by reverse-phase HPLC method; format: ADME, organism-based; parameters: dose 5 mg/kg, route oral; conditions: in vivo
# [9] = Half life in Wistar rat at 5 mg/kg, po administered as single dose measured after 1 to 24 hrs by reverse-phase HPLC method; conditions: in vivo
# [10] = Tmax in Wistar rat at 5 mg/kg, po administered as single dose measured after 1 to 24 hrs by reverse-phase HPLC method; format: ADME, organism-based; conditions: in vivo
# [11] = target: T1, Plasminogen activator inhibitor 1; assay: Inhibition of human PAI-1 assessed as remaining enzyme activity by measuring p-nitroaniline release pre-incubated for 15 mins before 9.8 nM human tPA substrate addition for 15 mins using 24.5 nM enzyme and chromogenic substrate S-2288 by spectrophotometry
# T1 sequence (P05121 whole entry): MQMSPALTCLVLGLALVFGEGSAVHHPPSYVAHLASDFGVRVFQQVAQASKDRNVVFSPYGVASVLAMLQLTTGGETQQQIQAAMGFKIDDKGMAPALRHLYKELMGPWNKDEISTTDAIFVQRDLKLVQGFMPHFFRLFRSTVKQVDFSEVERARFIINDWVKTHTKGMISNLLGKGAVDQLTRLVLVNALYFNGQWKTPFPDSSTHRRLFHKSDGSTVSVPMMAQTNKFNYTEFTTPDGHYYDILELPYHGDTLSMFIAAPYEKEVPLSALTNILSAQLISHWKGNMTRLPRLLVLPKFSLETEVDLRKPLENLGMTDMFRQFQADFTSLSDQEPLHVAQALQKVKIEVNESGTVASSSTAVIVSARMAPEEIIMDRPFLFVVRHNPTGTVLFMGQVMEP
SMILES,half-life [1] [h],Tmax [2] [h],Cmax [3] [µM],IC50 [7] [nM],further results
O=C(CSCC(=O)Nc1ccc(Cl)cc1C(=O)O)Nc1cccc(-c2ccoc2)c1,2.6,1,5.4,–,–
O=C(COCC(=O)Nc1ccc(Cl)cc1C(=O)O)Nc1ccc(-c2ccncc2)cc1,–,–,–,–,Tmax [4]: 6 h; Cmax [5]: 7.8 µM
O=C(COCC(=O)Nc1ccc(Cl)cc1C(=O)O)Nc1cccc(-c2ccncc2)c1,–,–,–,–,Tmax [4]: 6 h; Cmax [5]: 18 µM; half-life [6]: > 18 h
O=C(Nc1ccc(Cl)cc1C(=O)O)c1ccc(C(=O)c2ccccc2)cc1,0.9,1,35,4110,–
O=C(Nc1ccc(Cl)cc1C(=O)O)c1cccc(-c2ccoc2)c1,2,2,29.4,–,–
O=C(Nc1ccc(Cl)cc1C(=O)O)c1ccc(C2CCCCC2)cc1,0.7,1,15.2,2400,–
O=C(Nc1ccc(Cl)cc1C(=O)[O-])c1cccc(-c2cncc3ccccc23)c1.[Na+],9.2,6,1,3190,–
O=C(Nc1ccc(Cl)cc1C(=O)O)c1cccc(C23CC4CC(CC(C4)C2)C3)c1,2.3,2,4.4,1860,–
COc1ccc(-c2ccc(C)c(NC(=O)COCC(=O)Nc3ccc(Cl)cc3C(=O)O)c2)cc1,–,–,–,–,Cmax [8]: 2.2 µM; half-life [9]: 1 h; Tmax [10]: 2 h
O=C(COCC(=O)Nc1ccc(Cl)cc1C(=O)[O-])Nc1cccc(-n2cccc2)c1.[Na+],–,–,–,–,Cmax [8]: 7.4 µM; half-life [9]: 2.2 h; Tmax [10]: 2 h
O=C(COCC(=O)Nc1ccc(Cl)cc1C(=O)[O-])Nc1cccc(-c2ccccn2)c1.[Na+],–,–,–,–,Tmax [4]: 1 h; Cmax [5]: 136 µM; half-life [6]: 2.4 h
O=C(COCC(=O)Nc1ccccc1-c1ccc(F)cc1)Nc1ccc(Cl)cc1C(=O)O,–,–,–,–,Tmax [4]: 1 h; Cmax [5]: 41.8 µM
O=C(Nc1ccc(Cl)cc1C(=O)O)c1ccc(C23CC4CC(CC(C4)C2)C3)cc1,4.3,2,13.8,1170,–
CC(C)Oc1ccc(C(=O)Nc2ccc(Cl)cc2C(=O)O)cc1,5,1,22.3,> 10000,–
O=C(Nc1ccc(Cl)cc1C(=O)O)c1cccc(C2CCCCC2)c1,1.4,1,3.3,2420,–
O=C(COCC(=O)Nc1ccc(Cl)cc1C(=O)[O-])Nc1cccc(-c2ccc(F)cc2)c1.[Na+],–,–,–,–,Tmax [4]: 1 h; Cmax [5]: 62.8 µM
O=C(Nc1ccc(Cl)cc1C(=O)O)c1cccc(C2=CCCCC2)c1,0.7,1,5.2,2310,–
O=C(COCC(=O)Nc1ccc(Cl)cc1C(=O)O)Nc1cccc(C(F)(F)F)c1,–,–,–,–,Tmax [4]: 1 h; Cmax [5]: 58.6 µM; half-life [6]: 0.8 h
O=C(Nc1cccc(-c2ccoc2)c1)C(=O)Nc1ccc(Cl)cc1C(=O)O,1.7,2,22.5,–,–
O=C(Nc1ccc(Cl)cc1C(=O)O)c1ccc(-c2ccccc2)cc1,10.4,2,73.5,2980,–
O=C(Nc1ccc(Cl)cc1C(=O)O)c1ccc(Oc2ccccc2)cc1,13.3,6,64.2,5520,–
O=C(Nc1ccc(Cl)cc1C(=O)[O-])c1cccc(-c2cnc3ccccc3c2)c1.[Na+],3.5,2,1.1,1670,–
O=C(COCC(=O)Nc1ccc(Cl)cc1C(=O)O)Nc1cccc(-c2cn[nH]c2)c1,–,–,–,–,Cmax [8]: 1.7 µM; half-life [9]: 3.1 h; Tmax [10]: 1 h
Cc1ccc(-c2ccc(F)cc2)cc1NC(=O)COCC(=O)Nc1ccc(Cl)cc1C(=O)O,–,–,–,–,Tmax [4]: 1 h; Cmax [5]: 92.7 µM; half-life [6]: 1.8 h
Cn1cc(-c2cccc(NC(=O)COCC(=O)Nc3ccc(Cl)cc3C(=O)O)c2)cn1,–,–,–,–,Tmax [4]: 2 h; Cmax [5]: 20.5 µM; half-life [6]: 9.9 h

SMILES,half-life [1] [h],Tmax [2] [h],Cmax [3] [µM],IC50 [7] [nM],further results
O=C(COCC(=O)N1CCN(C(c2ccccc2)c2ccccc2)CC1)Nc1ccc(Cl)cc1C(=O)O,–,–,–,–,Tmax [4]: 2 h; Cmax [5]: 34.2 µM; IC50 [11]: 7940 nM; half-life [6]: 2.5 h
O=C(COCC(=O)Nc1ccc(Cl)cc1C(=O)[O-])Nc1cccc(-c2cccnc2)c1.[Na+],–,–,–,–,Tmax [4]: 2 h; Cmax [5]: 15.1 µM
O=C(Nc1ccc(Cl)cc1C(=O)[O-])c1cccc(-c2cccc3cnccc23)c1.[Na+],10.5,2,1.2,1840,–
O=C(Nc1ccc(Cl)cc1C(=O)[O-])c1cccc(-c2cccc3cccnc23)c1.[Na+],2.5,1,22.2,3630,–
O=C(Nc1ccc(Cl)cc1C(=O)O)c1cccc(-c2cccc3ccccc23)c1,1.7,2,6.3,900,–
COc1cccc(-c2ccc(C)c(NC(=O)COCC(=O)Nc3ccc(Cl)cc3C(=O)O)c2)c1,–,–,–,–,Cmax [8]: 9.4 µM; half-life [9]: 1.5 h; Tmax [10]: 2 h
O=C(Cc1cccc(-c2ccoc2)c1)Nc1ccc(Cl)cc1C(=O)O,1.9,2,43.1,–,–
O=C(COCC(=O)Nc1ccc(Cl)cc1C(=O)O)Nc1cccc(-c2ccco2)c1,–,–,–,–,Cmax [8]: 11.5 µM; half-life [9]: 4 h; Tmax [10]: 2 h
O=C(Nc1ccc(Cl)cc1C(=O)O)c1ccc(-c2cccs2)cc1,1.9,2,38.4,> 20000,–
CC(C)(C)c1ccc(C(=O)Nc2ccc(Cl)cc2C(=O)O)cc1,3.4,1,64.9,5200,–
CC(=O)Nc1ccc(-c2ccc(C)c(NC(=O)COCC(=O)Nc3ccc(Cl)cc3C(=O)O)c2)cc1,–,–,–,–,Tmax [4]: 2 h; Cmax [5]: 0.32 µM; half-life [6]: 1.4 h
O=C(COCC(=O)Nc1ccc(Cl)cc1C(=O)O)NCc1cccc(-c2ccoc2)c1,2.7,2,14,–,–
COc1ccccc1-c1ccc(C)c(NC(=O)COCC(=O)Nc2ccc(Cl)cc2C(=O)O)c1,–,–,–,–,Cmax [8]: 2.08 µM; half-life [9]: 2.5 h; Tmax [10]: 2 h
O=C(COCC(=O)Nc1ccc(Cl)cc1C(=O)O)Nc1cccc(-c2ccon2)c1,–,–,–,–,Cmax [8]: 2 µM; half-life [9]: 1.9 h; Tmax [10]: 2 h
O=C(Nc1ccc(Cl)cc1C(=O)[O-])c1cccc(-c2ccncc2)c1.[Na+],1.6,2,5.2,> 40000,–
CCN(C(=O)COCC(=O)Nc1ccc(Cl)cc1C(=O)O)c1cc(-c2ccc(F)cc2)ccc1C,–,–,–,–,Cmax [8]: 0.82 µM; half-life [9]: 0.9 h; Tmax [10]: 1 h
O=C(NCc1cccc(-c2ccoc2)c1)C(=O)Nc1ccc(Cl)cc1C(=O)O,> 22,2,41.6,–,–
O=C(Nc1ccc(Cl)cc1C(=O)O)c1ccc(C2CCOCC2)cc1,1.8,1,45.5,21600,–
O=C(COCC(=O)Nc1ccc(Cl)cc1C(=O)O)Nc1ccc(-c2ccoc2)cc1,–,–,–,–,Cmax [8]: 17.6 µM; half-life [9]: 4.2 h; Tmax [10]: 2 h
O=C(COc1cccc(-c2ccoc2)c1)Nc1ccc(Cl)cc1C(=O)O,1.9,2,56.3,–,–
O=C(COCC(=O)Nc1ccc(Cl)cc1C(=O)O)Nc1cccc(-c2ccsc2)c1,–,–,–,–,Tmax [4]: 2 h; Cmax [5]: 86.5 µM
O=C(Nc1ccc(Cl)cc1C(=O)O)c1cccc(-c2ccccc2)c1,1.6,2,17,2820,–
O=C(COCC(=O)Nc1ccc(Cl)cc1C(=O)O)Nc1cccc(-c2ccno2)c1,–,–,–,–,Cmax [8]: 14 µM; half-life [9]: 6 h; Tmax [10]: 1 h
O=C(COCC(=O)Nc1ccc(Cl)cc1C(=O)O)Nc1cccc(-c2ccoc2)c1,–,–,–,–,Tmax [4]: 1 h; Cmax [5]: 149 µM; Cmax [8]: 17.9 µM; Tmax [10]: 1 h
